The supplement of paper PMC11962398

What was measured:
BI-2493 [1] = compound: T1, C[C@H]1CNCCN1c1nccc(-c2noc3c2CCC[C@@]32CCCc3sc(N)c(C#N)c32)n1 [BI-2493]; settings: 5 days
Method: (§1)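 PRISM pooled barcoded cancer cell line viability screen (Broad Institute) with BI-2493 at 8 doses in threefold dilutions from 0.00457 to 10 µmol/L, 5-day treatment; curves fitted per cell line. IC50 is undefined (placeholder) for resistant lines. AUC is capped at 1, and sensitivity is reported as 1 − AUC.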

BI-2493 [2] = compound: T1, BI-2493; test: 1 - AUC of viability dose-response curve (sensitivity) (fraction); higher = more sensitive; settings: 5 days
Method: as §1

MELHO_SKIN
IC50 of cell viability (BI-2493 [1]): 7.85 µM | 1 - AUC of viability dose-response curve (BI-2493 [2]): 0.131

MESSA_SOFT_TISSUE
IC50 of cell viability (BI-2493 [1]): 3.73 µM | 1 - AUC of viability dose-response curve (BI-2493 [2]): 0.17

MEWO_SKIN
IC50 of cell viability (BI-2493 [1]): 9.6 µM | 1 - AUC of viability dose-response curve (BI-2493 [2]): 0.0577

MFE280_ENDOMETRIUM
IC50 of cell viability (BI-2493 [1]): > 10 µM | 1 - AUC of viability dose-response curve (BI-2493 [2]): 0.18

MFE296_ENDOMETRIUM
IC50 of cell viability (BI-2493 [1]): 9.19 µM | 1 - AUC of viability dose-response curve (BI-2493 [2]): 0.136

MFE319_ENDOMETRIUM
IC50 of cell viability (BI-2493 [1]): 9.02 µM | 1 - AUC of viability dose-response curve (BI-2493 [2]): 0.0267

MG63_BONE
IC50 of cell viability (BI-2493 [1]): 9.09 µM | 1 - AUC of viability dose-response curve (BI-2493 [2]): 0.0826

MHHES1_BONE
IC50 of cell viability (BI-2493 [1]): 8.05 µM | 1 - AUC of viability dose-response curve (BI-2493 [2]): 0.114

MHHNB11_AUTONOMIC_GANGLIA
IC50 of cell viability (BI-2493 [1]): 4.36 µM | 1 - AUC of viability dose-response curve (BI-2493 [2]): 0.177

MKN1_STOMACH
IC50 of cell viability (BI-2493 [1]): 1.18 µM | 1 - AUC of viability dose-response curve (BI-2493 [2]): 0.305

MKN7_STOMACH
IC50 of cell viability (BI-2493 [1]): 8.55 µM | 1 - AUC of viability dose-response curve (BI-2493 [2]): 0.161

MKN45_STOMACH
IC50 of cell viability (BI-2493 [1]): 0.5 µM | 1 - AUC of viability dose-response curve (BI-2493 [2]): 0.401

MKN74_STOMACH
IC50 of cell viability (BI-2493 [1]): 7.22 µM | 1 - AUC of viability dose-response curve (BI-2493 [2]): 0.117

MM1S_HAEMATOPOIETIC_AND_LYMPHOID_TISSUE
IC50 of cell viability (BI-2493 [1]): 0.558 µM | 1 - AUC of viability dose-response curve (BI-2493 [2]): 0.413

MM127_SKIN
IC50 of cell viability (BI-2493 [1]): 7.34 µM | 1 - AUC of viability dose-response curve (BI-2493 [2]): 0.0501

MMNK1_BILIARY_TRACT
IC50 of cell viability (BI-2493 [1]): 4.9 µM | 1 - AUC of viability dose-response curve (BI-2493 [2]): 0.0714

MOLM14_HAEMATOPOIETIC_AND_LYMPHOID_TISSUE
IC50 of cell viability (BI-2493 [1]): 2.79 µM | 1 - AUC of viability dose-response curve (BI-2493 [2]): 0.145

MOLP2_HAEMATOPOIETIC_AND_LYMPHOID_TISSUE
IC50 of cell viability (BI-2493 [1]): 6.56 µM | 1 - AUC of viability dose-response curve (BI-2493 [2]): 0.0525

MOLT3_HAEMATOPOIETIC_AND_LYMPHOID_TISSUE
IC50 of cell viability (BI-2493 [1]): 6.51 µM | 1 - AUC of viability dose-response curve (BI-2493 [2]): 0.0789

MOLT13_HAEMATOPOIETIC_AND_LYMPHOID_TISSUE
IC50 of cell viability (BI-2493 [1]): 5.21 µM | 1 - AUC of viability dose-response curve (BI-2493 [2]): 0.13

MOLT16_HAEMATOPOIETIC_AND_LYMPHOID_TISSUE
IC50 of cell viability (BI-2493 [1]): 1.81 µM | 1 - AUC of viability dose-response curve (BI-2493 [2]): 0.297

MONOMAC1_HAEMATOPOIETIC_AND_LYMPHOID_TISSUE
IC50 of cell viability (BI-2493 [1]): 7.33 µM | 1 - AUC of viability dose-response curve (BI-2493 [2]): 0.17

MONOMAC6_HAEMATOPOIETIC_AND_LYMPHOID_TISSUE
IC50 of cell viability (BI-2493 [1]): 7.72 µM | 1 - AUC of viability dose-response curve (BI-2493 [2]): 0.149

MON_SOFT_TISSUE
IC50 of cell viability (BI-2493 [1]): 2.57 µM | 1 - AUC of viability dose-response curve (BI-2493 [2]): 0.163

MP41_UVEA
IC50 of cell viability (BI-2493 [1]): 5.17 µM | 1 - AUC of viability dose-response curve (BI-2493 [2]): 0.119

MPP89_PLEURA
IC50 of cell viability (BI-2493 [1]): 9.24 µM | 1 - AUC of viability dose-response curve (BI-2493 [2]): 0.0335

MS751_CERVIX
IC50 of cell viability (BI-2493 [1]): 8.93 µM | 1 - AUC of viability dose-response curve (BI-2493 [2]): 0.029

MSTO211H_PLEURA
IC50 of cell viability (BI-2493 [1]): 3.67 µM | 1 - AUC of viability dose-response curve (BI-2493 [2]): 0.136

NALM6_HAEMATOPOIETIC_AND_LYMPHOID_TISSUE
IC50 of cell viability (BI-2493 [1]): 6.5 µM | 1 - AUC of viability dose-response curve (BI-2493 [2]): 0.0753

NB1_AUTONOMIC_GANGLIA
IC50 of cell viability (BI-2493 [1]): 3.3 µM | 1 - AUC of viability dose-response curve (BI-2493 [2]): 0.201

NB4_HAEMATOPOIETIC_AND_LYMPHOID_TISSUE
IC50 of cell viability (BI-2493 [1]): 2.53 µM | 1 - AUC of viability dose-response curve (BI-2493 [2]): 0.175

NCCIT_TESTIS
IC50 of cell viability (BI-2493 [1]): 0.878 µM | 1 - AUC of viability dose-response curve (BI-2493 [2]): 0.192

NCIH23_LUNG
IC50 of cell viability (BI-2493 [1]): 3 µM | 1 - AUC of viability dose-response curve (BI-2493 [2]): 0.199

NCIH28_PLEURA
IC50 of cell viability (BI-2493 [1]): 5.43 µM | 1 - AUC of viability dose-response curve (BI-2493 [2]): 0.0967

NCIH82_LUNG
IC50 of cell viability (BI-2493 [1]): 8.8 µM | 1 - AUC of viability dose-response curve (BI-2493 [2]): 0.0218

NCIH196_LUNG
IC50 of cell viability (BI-2493 [1]): 6.4 µM | 1 - AUC of viability dose-response curve (BI-2493 [2]): 0.0864

NCIH226_LUNG
IC50 of cell viability (BI-2493 [1]): 5.37 µM | 1 - AUC of viability dose-response curve (BI-2493 [2]): 0.134

NCIH292_LUNG
IC50 of cell viability (BI-2493 [1]): 5.7 µM | 1 - AUC of viability dose-response curve (BI-2493 [2]): 0.0643

NCIH322_LUNG
IC50 of cell viability (BI-2493 [1]): 2.29 µM | 1 - AUC of viability dose-response curve (BI-2493 [2]): 0.257

NCIH358_LUNG
IC50 of cell viability (BI-2493 [1]): 2.33 µM | 1 - AUC of viability dose-response curve (BI-2493 [2]): 0.281

NCIH441_LUNG
IC50 of cell viability (BI-2493 [1]): 4.14 µM | 1 - AUC of viability dose-response curve (BI-2493 [2]): 0.168

NCIH446_LUNG
IC50 of cell viability (BI-2493 [1]): 4.06 µM | 1 - AUC of viability dose-response curve (BI-2493 [2]): 0.216

NCIH508_LARGE_INTESTINE
IC50 of cell viability (BI-2493 [1]): > 10 µM | 1 - AUC of viability dose-response curve (BI-2493 [2]): 0.088

NCIH520_LUNG
IC50 of cell viability (BI-2493 [1]): > 10 µM | 1 - AUC of viability dose-response curve (BI-2493 [2]): 0.0795

NCIH522_LUNG
IC50 of cell viability (BI-2493 [1]): 9.9 µM | 1 - AUC of viability dose-response curve (BI-2493 [2]): 0.0303

NCIH524_LUNG
IC50 of cell viability (BI-2493 [1]): 5.44 µM | 1 - AUC of viability dose-response curve (BI-2493 [2]): 0.0829

NCIH596_LUNG
IC50 of cell viability (BI-2493 [1]): > 10 µM | 1 - AUC of viability dose-response curve (BI-2493 [2]): 0.00278

NCIH647_LUNG
IC50 of cell viability (BI-2493 [1]): 5.65 µM | 1 - AUC of viability dose-response curve (BI-2493 [2]): 0.171

NCIH650_LUNG
IC50 of cell viability (BI-2493 [1]): 9.27 µM | 1 - AUC of viability dose-response curve (BI-2493 [2]): 0.0133
